# Test system: MDA-MB-468 multi-cell spheroids, viability
# Experiment: Anticancer human tumor MDA-MB-468 cell line growth inhibition [IpAb];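 further: spheroids exposed to agents for seven days; 100% = DMSO vehicle control viability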
# Settings: second compound 0.01 µM; first compound 0.316 µM; active compounds read low
# Procedure, shortened: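 Multi-cell spheroids of 60% tumour cells, 25% HUVEC and 15% MSC in ultra-low-attachment U-bottom wells, treated with agents combined with ipatasertib or abemaciclib. Half-log ranges top out near clinical Cmax, or 10 microM when Cmax is unknown.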
row,Structure (SMILES),"viability, T/C [%]"
1,C=CC(=O)N1CCN(c2nc(=O)n(-c3c(C)ccnc3C(C)C)c3nc(-c4c(O)cccc4F)c(F)cc23)C(C)C1 (centres undefined) + CCN1CCN(Cc2ccc(Nc3ncc(F)c(-c4cc(F)c5nc(C)n(C(C)C)c5c4)n3)nc2)CC1,110
2,Cn1nccc1Nc1nccc(-c2ccn(C(CO)c3ccc(Cl)c(F)c3)c(=O)c2)n1 (centres undefined) + CCN1CCN(Cc2ccc(Nc3ncc(F)c(-c4cc(F)c5nc(C)n(C(C)C)c5c4)n3)nc2)CC1,86
3,C=CCn1c(=O)c2cnc(Nc3ccc(N4CCN(C)CC4)cc3)nc2n1-c1cccc(C(C)(C)O)n1 + CCN1CCN(Cc2ccc(Nc3ncc(F)c(-c4cc(F)c5nc(C)n(C(C)C)c5c4)n3)nc2)CC1,72.8

# Same assay, conditions: second compound 0.01 µM; first compound 1 µM; active compounds read low
row,Structure (SMILES),"viability, T/C [%]"
1,C=CC(=O)N1CCN(c2nc(=O)n(-c3c(C)ccnc3C(C)C)c3nc(-c4c(O)cccc4F)c(F)cc23)C(C)C1 (centres undefined) + CCN1CCN(Cc2ccc(Nc3ncc(F)c(-c4cc(F)c5nc(C)n(C(C)C)c5c4)n3)nc2)CC1,113
2,Cn1nccc1Nc1nccc(-c2ccn(C(CO)c3ccc(Cl)c(F)c3)c(=O)c2)n1 (centres undefined) + CCN1CCN(Cc2ccc(Nc3ncc(F)c(-c4cc(F)c5nc(C)n(C(C)C)c5c4)n3)nc2)CC1,77.7
3,C=CCn1c(=O)c2cnc(Nc3ccc(N4CCN(C)CC4)cc3)nc2n1-c1cccc(C(C)(C)O)n1 + CCN1CCN(Cc2ccc(Nc3ncc(F)c(-c4cc(F)c5nc(C)n(C(C)C)c5c4)n3)nc2)CC1,6.04

# Same assay, conditions: second compound 0.01 µM; first compound 3.16 µM; active compounds read low
row,Structure (SMILES),"viability, T/C [%]"
1,C=CC(=O)N1CCN(c2nc(=O)n(-c3c(C)ccnc3C(C)C)c3nc(-c4c(O)cccc4F)c(F)cc23)C(C)C1 (centres undefined) + CCN1CCN(Cc2ccc(Nc3ncc(F)c(-c4cc(F)c5nc(C)n(C(C)C)c5c4)n3)nc2)CC1,93.2
2,Cn1nccc1Nc1nccc(-c2ccn(C(CO)c3ccc(Cl)c(F)c3)c(=O)c2)n1 (centres undefined) + CCN1CCN(Cc2ccc(Nc3ncc(F)c(-c4cc(F)c5nc(C)n(C(C)C)c5c4)n3)nc2)CC1,70
3,C=CCn1c(=O)c2cnc(Nc3ccc(N4CCN(C)CC4)cc3)nc2n1-c1cccc(C(C)(C)O)n1 + CCN1CCN(Cc2ccc(Nc3ncc(F)c(-c4cc(F)c5nc(C)n(C(C)C)c5c4)n3)nc2)CC1,2.55

# Same assay, conditions: second compound 0.01 µM; first compound 10 µM; active compounds read low
row,Structure (SMILES),"viability, T/C [%]"
1,C=CC(=O)N1CCN(c2nc(=O)n(-c3c(C)ccnc3C(C)C)c3nc(-c4c(O)cccc4F)c(F)cc23)C(C)C1 (centres undefined) + CCN1CCN(Cc2ccc(Nc3ncc(F)c(-c4cc(F)c5nc(C)n(C(C)C)c5c4)n3)nc2)CC1,35.1
2,Cn1nccc1Nc1nccc(-c2ccn(C(CO)c3ccc(Cl)c(F)c3)c(=O)c2)n1 (centres undefined) + CCN1CCN(Cc2ccc(Nc3ncc(F)c(-c4cc(F)c5nc(C)n(C(C)C)c5c4)n3)nc2)CC1,3.11
3,C=CCn1c(=O)c2cnc(Nc3ccc(N4CCN(C)CC4)cc3)nc2n1-c1cccc(C(C)(C)O)n1 + CCN1CCN(Cc2ccc(Nc3ncc(F)c(-c4cc(F)c5nc(C)n(C(C)C)c5c4)n3)nc2)CC1,2.34

# Same assay, conditions: second compound 0.0316 µM; first compound 0.0316 µM; active compounds read low
row,Structure (SMILES),"viability, T/C [%]"
1,C=CC(=O)N1CCN(c2nc(=O)n(-c3c(C)ccnc3C(C)C)c3nc(-c4c(O)cccc4F)c(F)cc23)C(C)C1 (centres undefined) + CCN1CCN(Cc2ccc(Nc3ncc(F)c(-c4cc(F)c5nc(C)n(C(C)C)c5c4)n3)nc2)CC1,98.6
2,Cn1nccc1Nc1nccc(-c2ccn(C(CO)c3ccc(Cl)c(F)c3)c(=O)c2)n1 (centres undefined) + CCN1CCN(Cc2ccc(Nc3ncc(F)c(-c4cc(F)c5nc(C)n(C(C)C)c5c4)n3)nc2)CC1,93.3
3,C=CCn1c(=O)c2cnc(Nc3ccc(N4CCN(C)CC4)cc3)nc2n1-c1cccc(C(C)(C)O)n1 + CCN1CCN(Cc2ccc(Nc3ncc(F)c(-c4cc(F)c5nc(C)n(C(C)C)c5c4)n3)nc2)CC1,96.3

# Same assay, conditions: second compound 0.0316 µM; first compound 0.1 µM; active compounds read low
row,Structure (SMILES),"viability, T/C [%]"
1,C=CC(=O)N1CCN(c2nc(=O)n(-c3c(C)ccnc3C(C)C)c3nc(-c4c(O)cccc4F)c(F)cc23)C(C)C1 (centres undefined) + CCN1CCN(Cc2ccc(Nc3ncc(F)c(-c4cc(F)c5nc(C)n(C(C)C)c5c4)n3)nc2)CC1,90.9
2,Cn1nccc1Nc1nccc(-c2ccn(C(CO)c3ccc(Cl)c(F)c3)c(=O)c2)n1 (centres undefined) + CCN1CCN(Cc2ccc(Nc3ncc(F)c(-c4cc(F)c5nc(C)n(C(C)C)c5c4)n3)nc2)CC1,77.9
3,C=CCn1c(=O)c2cnc(Nc3ccc(N4CCN(C)CC4)cc3)nc2n1-c1cccc(C(C)(C)O)n1 + CCN1CCN(Cc2ccc(Nc3ncc(F)c(-c4cc(F)c5nc(C)n(C(C)C)c5c4)n3)nc2)CC1,87.9

# Same assay, conditions: second compound 0.0316 µM; first compound 0.316 µM; active compounds read low
row,Structure (SMILES),"viability, T/C [%]"
1,C=CC(=O)N1CCN(c2nc(=O)n(-c3c(C)ccnc3C(C)C)c3nc(-c4c(O)cccc4F)c(F)cc23)C(C)C1 (centres undefined) + CCN1CCN(Cc2ccc(Nc3ncc(F)c(-c4cc(F)c5nc(C)n(C(C)C)c5c4)n3)nc2)CC1,108
2,Cn1nccc1Nc1nccc(-c2ccn(C(CO)c3ccc(Cl)c(F)c3)c(=O)c2)n1 (centres undefined) + CCN1CCN(Cc2ccc(Nc3ncc(F)c(-c4cc(F)c5nc(C)n(C(C)C)c5c4)n3)nc2)CC1,71
3,C=CCn1c(=O)c2cnc(Nc3ccc(N4CCN(C)CC4)cc3)nc2n1-c1cccc(C(C)(C)O)n1 + CCN1CCN(Cc2ccc(Nc3ncc(F)c(-c4cc(F)c5nc(C)n(C(C)C)c5c4)n3)nc2)CC1,71.3

# Same assay, conditions: second compound 0.0316 µM; first compound 1 µM; active compounds read low
row,Structure (SMILES),"viability, T/C [%]"
1,C=CC(=O)N1CCN(c2nc(=O)n(-c3c(C)ccnc3C(C)C)c3nc(-c4c(O)cccc4F)c(F)cc23)C(C)C1 (centres undefined) + CCN1CCN(Cc2ccc(Nc3ncc(F)c(-c4cc(F)c5nc(C)n(C(C)C)c5c4)n3)nc2)CC1,91.7
2,Cn1nccc1Nc1nccc(-c2ccn(C(CO)c3ccc(Cl)c(F)c3)c(=O)c2)n1 (centres undefined) + CCN1CCN(Cc2ccc(Nc3ncc(F)c(-c4cc(F)c5nc(C)n(C(C)C)c5c4)n3)nc2)CC1,84.6
3,C=CCn1c(=O)c2cnc(Nc3ccc(N4CCN(C)CC4)cc3)nc2n1-c1cccc(C(C)(C)O)n1 + CCN1CCN(Cc2ccc(Nc3ncc(F)c(-c4cc(F)c5nc(C)n(C(C)C)c5c4)n3)nc2)CC1,6.12
